Measured values from the SangsterLogP compilation.
One block for each compound: values may come before it.

Experiments:
[1] = method code SF-AS, from DOI: 10.1006/pest.1994.1014
[2] = method code SF-GLC, from DOI: 10.1016/s0045-6535(02)00841-x, PMID: 12615110
[3] = method code SF-HPLC, from DOI: 10.1002/etc.5620081103
[4] = not given; remark: listed apart in the source
[5] = method code SF-AS, from DOI: 10.1080/10826076.2011.619030
[6] = method code SF-HPLC, from DOI: 10.1002/jlac.1995199512305
[7] = method code SF-AS, from Kourounakis, P.; Chilliard, N. (1983). Ionization constants and partition coefficients of some 1,1-diphenyl-1-alkoxy-3-dialkylamino-2-propanones with analgesic activity. Pharmazie, 38(6)388-389.; conditions: pH 7.4
[8] = method code SF-AS, from DOI: 10.1211/0022357001777513, PMID: 11186244; conditions: pH 7.3
[9] = method code SF-RC, from DOI: 10.1021/es60170a013
[10] = not given; remark: listed apart in the source
[11] = method code SF-GLC, from DOI: 10.1016/0166-445x(88)90052-5
[12] = method code SF, from DOI: 10.1080/09553008714551831, PMID: 3497891; conditions: pH 7.4
[13] = not given; remark: listed apart in the source
[14] = method code SF-AS, from DOI: 10.1021/jm00197a006, PMID: 533877
[15] = not given; remark: listed apart in the source
[16] = method code SF-AS, from DOI: 10.1021/jm00371a026, PMID: 6425501; conditions: pH 7.4
[17] = method code SF-AS, from DOI: 10.1016/0048-3575(88)90061-2
[18] = not given; remark: listed apart in the source
[19] = method code SF-HPLC, from DOI: 10.1016/0378-5173(92)90116-j; conditions: pH 7.4
[20] = method code SF, from Kruglik, P.; Leschev, M.; Rakhman'ko, M.; Bubel, N.; Asratyan, V. (1991). Extraction of 1,2,4-triazole and its derivatives by organic solvents. 64(8)1721-1724.

- logP [1]: 2.88
Structure (SMILES): CC(C)(C)N(NC(=O)c1cccc(F)c1)C(=O)c1ccccc1Cl

- logP [3]: 4.6
Structure (SMILES): CC(=O)OCCN(CCC#N)c1ccc(/N=N/c2nc3ccc([N+](=O)[O-])cc3s2)cc1

- logP [4]: -0.61
Structure (SMILES): COCCO

- logP [6]: 0.72
Structure (SMILES): COc1ccc(C(O)P(=O)(OCC2OC(n3cc(C)c(=O)[nH]c3=O)CC2N=[N+]=[N-])OCC2OC(n3cc(C)c(=O)[nH]c3=O)CC2N=[N+]=[N-])cc1 (centres undefined)

- logD [7]: 0.85
Structure (SMILES): CC#CCOC(C(=O)CN(C)C)(c1ccccc1)c1ccccc1

- logP [5]: 0.13
Structure (SMILES): CC1(C)OC2C(COC3CC(O)C(O)C(CO)O3)OC(n3ccc(=O)n(C(=O)c4ccccc4)c3=O)C2O1 (centres undefined)

- logD [12]: -0.47
Structure (SMILES): COCC(O)Cn1cnc([N+](=O)[O-])n1 (centres undefined)

- logP [3]: 5
Structure (SMILES): O=C1C(c2nc3ccccc3cc2O)=C(O)c2ccccc21

- logP [6]: 1.45
Structure (SMILES): Cc1cn(C2CC(N=[N+]=[N-])C(COP(=O)(OCC3OC(n4cc(C)c(=O)[nH]c4=O)CC3N=[N+]=[N-])C(O)c3ccc(Cl)cc3)O2)c(=O)[nH]c1=O (centres undefined)

- logP [5]: 1.29
Structure (SMILES): CC1(C)OC2C(COC(=O)c3ccccc3)OC(n3ccc(=O)[nH]c3=O)C2O1 (centres undefined)

- logP [14]: 0.78
Structure (SMILES): Cc1nnc(/C=N/O)s1

- logP [3]: 5.4
Structure (SMILES): C=CCN(CCC#N)c1cc(NC(C)=O)c(/N=N/c2c(Br)cc([N+](=O)[O-])cc2[N+](=O)[O-])cc1OC

- logP [14]: 1.29
Structure (SMILES): Cc1nsc(C=NO)n1

- logP [17]: 3.5
Structure (SMILES): O=C(NC(=O)c1c(F)cccc1F)Nc1ccc(Oc2ncc(Cl)cc2C(F)(F)F)cc1

- logD [19]: 1.16
Structure (SMILES): CCC(C(=O)OCCCCOC(=O)C(CC)C(CO)Cc1cncn1C)C(CO)Cc1cncn1C (centres undefined)

- logP [1]: 3.11
Structure (SMILES): Cc1cccc(C(=O)NN(C(=O)c2ccccc2Cl)C(C)(C)C)c1

- logD [8]: 2.61
Structure (SMILES): OCC(O)COc1c(F)cc(-c2c3nc(c(-c4cc(F)c(OCC(O)CO)c(F)c4)c4ccc([nH]4)c(-c4cc(F)c(OCC(O)CO)c(F)c4)c4nc(c(-c5cc(F)c(OCC(O)CO)c(F)c5)c5ccc2[nH]5)C=C4)C=C3)cc1F (centres undefined)

- logP [6]: 0.94
Structure (SMILES): Cc1cn(C2CC(N=[N+]=[N-])C(COP(=O)(OCC3OC(n4cc(C)c(=O)[nH]c4=O)CC3N=[N+]=[N-])C(O)c3ccc([N+](=O)[O-])cc3[N+](=O)[O-])O2)c(=O)[nH]c1=O (centres undefined)

- logP [17]: 3.53
Structure (SMILES): O=C(NC(=O)c1c(F)cccc1F)Nc1ccc(Oc2ncc(C(F)(F)F)cc2Cl)cc1

- logD [19]: 1.99
Structure (SMILES): CCC(C(=O)OCc1cccc(COC(=O)C(CC)C(CO)Cc2cncn2C)c1)C(CO)Cc1cncn1C (centres undefined)

- logP [5]: -1.56
Structure (SMILES): CC1(C)OC2C(COC3CC(O)C(O)C(CO)O3)OC(n3ccc(=O)[nH]c3=O)C2O1 (centres undefined)

- logD [19]: 1.84
Structure (SMILES): CCC(C(=O)OCCCCCCOC(=O)C(CC)C(CO)Cc1cncn1C)C(CO)Cc1cncn1C (centres undefined)

- logP [18]: 0.01
Structure (SMILES): COc1cccc2c1C(=O)c1c(O)c3c(c(O)c1C2=O)C[C@@](O)(C(=O)CO)C[C@@H]3O[C@H]1C[C@H](N)C[C@H](C)O1

- logP [3]: 4.8
Structure (SMILES): COc1cc(N=Nc2c(Br)cc([N+](=O)[O-])cc2Br)c(NC(C)=O)cc1N(CCOC(C)=O)CCOC(C)=O

- logD [7]: 0.7
Structure (SMILES): C#CCOC(C(=O)CN(C)C)(c1ccccc1)c1ccccc1

- logP [18]: 0.39
Structure (SMILES): COC1C(N)CC(OC2CC(O)(C(=O)CO)Cc3c(O)c4c(c(O)c32)C(=O)c2ccccc2C4=O)OC1C (centres undefined)

- logD [19]: 0.68
Structure (SMILES): CCC(C(=O)OCCCOC(=O)C(CC)C(CO)Cc1cncn1C)C(CO)Cc1cncn1C (centres undefined)

- logP [4]: 0.75
Structure (SMILES): CC(C)COCCO

- logP [20]: 0.22
Structure (SMILES): CCCn1cnc([N+](=O)[O-])n1

- logP [17]: 2.8
Structure (SMILES): O=C(NC(=O)c1c(F)cccc1F)Nc1ccc(Oc2ccc(C(F)(F)F)cn2)cc1

- logP [6]: 0.83
Structure (SMILES): Cc1cn(C2CC(N=[N+]=[N-])C(COP(=O)(OCC3OC(n4cc(C)c(=O)[nH]c4=O)CC3N=[N+]=[N-])C(O)c3ccc([N+](=O)[O-])cc3)O2)c(=O)[nH]c1=O (centres undefined)

- logP [17]: 1.57
Structure (SMILES): O=C(NC(=O)c1c(F)cccc1F)Nc1ccc(Oc2ccccn2)cc1

Second part, the compound before the results:

Structure (SMILES): ClC=C(Cl)Cl
- logP: 2.67

Structure (SMILES): CC(C)(C)N(NC(=O)c1cccc(Cl)c1)C(=O)c1ccccc1Cl
- logP [1]: 3.49

Structure (SMILES): Brc1ccc(Oc2ccc(Br)cc2Br)c(Br)c1
- logP [2]: 6.81

Structure (SMILES): CC1(C)OC2C(COC3CC(O)C(O)C(CO)O3)OC(n3ccc(=O)n(Cc4ccccc4)c3=O)C2O1 (centres undefined)
- logP [5]: 0.59

Structure (SMILES): Oc1ccc(-c2c3nc(c(-c4ccc(O)cc4)c4ccc([nH]4)c(-c4ccc(O)cc4)c4nc(c(-c5ccc(O)cc5)c5ccc2[nH]5)C=C4)C=C3)cc1
- logD [8]: 4.77

Structure (SMILES): ClC(Cl)C(Cl)Cl
- logP [9]: 2.39

Structure (SMILES): COCC(c1c(O)c2ccccc2oc1=O)c1c(O)c2ccccc2oc1=O
- logP [10]: 1.38

Structure (SMILES): BrCC1CO1 (centres undefined)
- logP [11]: 0.85

Structure (SMILES): Nc1ncc([N+](=O)[O-])s1
- logD [12]: 0.89

Structure (SMILES): CCOC1OC2OC3(C)C=C(O)C4C(C)CCC(C1C)C24OO3 (centres undefined)
- logP [13]: 2.7

Structure (SMILES): Brc1cc(Br)c(Oc2cc(Br)c(Br)cc2Br)c(Br)c1
- logP [2]: 7.82

Structure (SMILES): CC(C)(C)N(NC(=O)c1ccccc1F)C(=O)c1ccccc1Cl
- logP [1]: 2.63

Structure (SMILES): O/N=C/c1cnns1
- logP [14]: 0.86

Structure (SMILES): CCC(c1c(O)c2ccccc2oc1=O)c1c(O)c2ccccc2oc1=O
- logP [10]: 2.02

Structure (SMILES): OCC1CO1 (centres undefined)
- logP [11]: -0.95

Structure (SMILES): CC(C=CC1=C(C)C=CCC1(C)C)=CC=CC(C)=CCO
- logP [15]: 7.41

Structure (SMILES): CCOC1OC2OC3(C)CCC4C(OC5OC(C(=O)O)C(O)C(O)C5O)CCC(C1C)C24OO3 (centres undefined)
- logP [13]: 1.05

Structure (SMILES): Oc1ccc(Cl)c(O)c1
- logP [9]: 1.8

Structure (SMILES): O=c1oc2ccccc2c(O)c1C(c1ccccc1)c1c(O)c2ccccc2oc1=O
- logP [10]: 1.95

Structure (SMILES): OCC(O)COc1cccc(-c2c3nc(c(-c4cccc(OCC(O)CO)c4)c4ccc([nH]4)c(-c4cccc(OCC(O)CO)c4)c4nc(c(-c5cccc(OCC(O)CO)c5)c5ccc2[nH]5)C=C4)C=C3)c1 (centres undefined)
- logD [8]: 4.83

Structure (SMILES): OCC(O)COc1cccc(-c2c3nc(c(-c4cccc(OCC(O)CO)c4F)c4ccc([nH]4)c(-c4cccc(OCC(O)CO)c4F)c4nc(c(-c5cccc(OCC(O)CO)c5F)c5ccc2[nH]5)C=C4)C=C3)c1F (centres undefined)
- logD [8]: 2.65

Structure (SMILES): CO[C@@]12[C@H](COC(N)=O)C3=C(C(=O)C(C)=C(Nc4ccccc4)C3=O)N1C[C@@H]1N[C@@H]12
- logD [16]: 1.3

Structure (SMILES): CO[C@@]12[C@@H]3N[C@@H]3CN1C1=C(C(=O)C(Nc3nc(C)cs3)=C(C)C1=O)[C@@H]2COC(N)=O
- logD [16]: 1.16

Structure (SMILES): ClCCCl
- logP: 1.55

Structure (SMILES): CC1CCC2C(C)C(OC3OC(C(=O)O)C(O)C(O)C3O)OC3OC4(C)CCC1C32OO4 (centres undefined)
- logP [13]: 1.08

Structure (SMILES): CO[C@@]12[C@H](COC(N)=O)C3=C(C(=O)C(C)=C(Nc4nc(C)c(C)s4)C3=O)N1C[C@@H]1N[C@@H]12
- logD [16]: 1.29

Structure (SMILES): CCCOC(C(=O)CN(C)C)(c1ccccc1)c1ccccc1
- logD [7]: 1.73

Structure (SMILES): C=CCOCCO
- logP [4]: -0.1

Structure (SMILES): CC(=O)C1(O)Cc2c(O)c3c(c(O)c2C(OC2CC(N)C(O)C(C)O2)C1)C(=O)c1c(O)cccc1C3=O (centres undefined)
- logP [18]: 0.96

Structure (SMILES): CC(Cl)CCl (centres undefined)
- logP: 1.98

Structure (SMILES): ClCC1CO1 (centres undefined)
- logP [11]: 0.45

Structure (SMILES): CO[C@@]12[C@H](COC(N)=O)C3=C(C(=O)C(C)=C(Nc4ccc(C)nc4)C3=O)N1C[C@@H]1N[C@@H]12
- logD [16]: 0.59

Structure (SMILES): CCOC(=O)C(c1c(O)c2ccccc2oc1=O)c1c(O)c2ccccc2oc1=O
- logP [10]: 1.32

Structure (SMILES): CC(=O)C1(O)Cc2c(O)c3c(c(O)c2C(OC2CC(N)C(O)C(C)O2)C1)C(=O)c1ccccc1C3=O (centres undefined)
- logP [18]: 0.68

Structure (SMILES): COCC(O)Cn1ncc([N+](=O)[O-])n1 (centres undefined)
- logD [12]: -0.1

Structure (SMILES): CC(C)(CO)[C@@H](O)C(=O)NCCC(=O)O
- logP [15]: -1.69

Structure (SMILES): Brc1ccc(Oc2c(Br)cc(Br)cc2Br)c(Br)c1
- logP [2]: 7.24

Structure (SMILES): CCOC(C(=O)CN1CCOCC1)(c1ccccc1)c1ccccc1
- logD [7]: 1.08

Structure (SMILES): O=[N+]([O-])c1nc[nH]n1
- logP [20]: -0.41

Structure (SMILES): O=C(O)CCCC[C@@H]1SC[C@@H]2NC(=O)N[C@@H]21
- logP [15]: 0.39

Structure (SMILES): Cn1cnc([N+](=O)[O-])n1
- logP [20]: -0.45

Structure (SMILES): ClC(Cl)Cl
- logP [9]: 1.9
